Measurements reported in patent publication US5041535A, “Antileukemic and immunostimulant peptides” (Richter Gedeon Vegyeszeti Gyar Rt., priority 1986, dated 1991).

Assays:
[1] = tested on: peritoneal exsudatum cells (PEC); experiment: Effect on phagocytosis, in vivo; design: species or system CFLP mice; details: 24th hour after treatment, control 179.7 ± 3.6
Protocol: Male CFLP mice having a body of weight of 22-23 g are divided into four groups of 8-12 animals each. The animals of the test groups are treated with Glp-Lys-NH2 -mandelate for 2 days. The treatment is carried out by administering a 0.1, 1 or 10 mg/kg s.c. dose, respectively, of the active ingredient once a day, in the form of a solution in a physiological sodium chloride solution. In the 24th hour after the last treatment the yeast cell incorporating capacity of the peritoneal exsudatum cells (PEC) is determined. In the Table the x±S.E.M. data relate to the number of yeast cells incorporated into the 100 PEC cells.

PEC cells [2] = experiment: Phagocytosis inhibited by cyclophosphamide, simultaneously administered cyclophosphamide and peptide; assay type: in vivo, CFLP mice; details: 2 days, CY alone 102.5 ± 4.8, control 186.3 ± 7.8
Protocol: (§1) Male CFLP mice weighing 22-23 g are divided into five groups of 8-12 animals each. The animals belonging to the test groups (all groups except the control one) are treated for two days once a day with a 80 mg/kg p.o. dose of cyclophosphamide and the animals of three of the said groups are treated simultaneously with the administration of cyclophosphamide with a 0.1, 1.0 and 10 mg/kg s.c. dose, respectively, of Glp-Lys-NH2 -mandelate dissolved in a physiological soidum chloride solution. On the 3rd day of the test the yeast cell incorporating capacity of the PEC cells is determined. The x±S.E.M. values disclosed in the Table stand for the number of yeast cells incorporated by the 100 PEC cells.

PEC cells [3] = experiment: Phagocytosis inhibited by cyclophosphamide, non-simultaneously administered cyclophosphamide and peptide; assay type: in vivo, CFLP mice; details: CY 80 mg/kg p.o., CY alone 112.1 ± 6.4, control 221 ± 9.4
Protocol: as §1, with “cells. One proceeds as described in test a) except that the peptide is administered to the animals 6 hours after treatment with cyclophosphamide. The test is evaluated as described above.” for “cells.”

[4] = tested on: human K-562 erythroleukaemical cell-line; experiment: Inhibition of the proliferation of tumor cells (K-562); assay type: cell-based; details: 72nd hour after treatment, percentage of the control
Protocol: In the test human K-562 erythroleukaemical cell-line is used (Karolinska Institute, Stockholm). Incubation is carried out in a nutrient medium designated RPMI-1640 (manufactured by Flow, Great Britain) comprising 10% of foetal calf serum, at a temperature of 37° C., in a humidified incubator containing 3% of carbon dioxide, in plastic dishes. Every point of measurement corresponds to the average of the data measured in three dishes, each. At the beginning of the test the dilution amounts to 0.5×10^5 cells/ml. Treatment is carried out 24 hours after dilution in a manner that the medium is not changed after the treatment. The cells are counted for 96 hours after dilution every 24th hour wit the aid of a Buerker chamber.
Under the effect of the peptide in the 24th hour after treatment the cell number stagnates and later it increases to a very small extent. […] The tumor-cell division inhibiting effect of the new peptides is summarized in Table 1 (72 hours after treatment). The rate of inhibition is expressed in the percentage of the control. It clearly appears from the data of the Table that the tested peptides inhibit the proliferation of human K-562 erythroleukaemic cells.

[5] = tested on: lymphocytes inhibited by Azathioprine; experiment: E-rosetta test inhibited by Azathioprine; assay type: cell-based
Protocol: Inhibition of the proliferation of T-lymphocytes is tested in the E-rosetta test inhibited by Azathioprine [6-(1-methyl-4-nitroimidazole-5-yl-thio)-purine; Thymus 1, 195 (1980)].
To 200 μl of a healthy lymphocyte cell-suspension 500 μl/ml of Azathioprine and 200 μl of a separate dilution of the test compound in HBBS buffer (manufacturer: Flow, Great Britain) are added (concentration range: 10^-3 to […]). The mixture is incubated at a temperature of 37° C. in air containing 5% of carbon dioxide for 60 minutes, whereupon 200 μl of a 1% sheep erythrocyte suspension are added. The mixture thus-obtained is centrifuged at 1,000 r.p.m. for 5 minutes, the supernatant is removed by decanting and in the suspension the lymphocytes forming E-rosetta are counted under a microscope from at least 400 cells.
Under the effect of the peptides the E-rosetta forming activity of the lymphocytes inhibited by Azathioprine increases to different extent. […] It appears from the data of Table 2 that the tested peptides increase the E-rosetta forming capacity of inhibited lymphocytes, i.e. the peptides of the present invention show immunostimulant effect.

[6] = tested on: antibody production inhibited by cyclophosphamide; experiment: Effect on antibody production in mice treated with cyclophosphamide; assay type: in vivo, CELP mice; details: cyclophosphamide 100 mg/kg i.p., titer on 6th day
Protocol: The effect on in vivo antibody production is tested on CELP mice treated with a 100 mg/kg body weight dose of cyclophosphamide {2-[bis-(2-chloroethyl)-amino]-tetrahydro-2H-1,3,2-oxaza -phosphorine-2-oxide; method: Z. Naturforsch. 35B, 1476 (1980)}. The mice are intraperitoneally immunized with a 1% sheep erythrocyte suspension previously washed three times with a 0.9% sodium chloride solution after 10 minutes of centrifuging at 2,500 r.p.m. Simultaneously with immunization carried out on the 0. day, the activity of the immune system is suppressed by means of treatment with a 100 mg/kg i.p. does of cyclophosphamide. On the 3rd day of the test the peptides are administered to the animals intraperitoneally in a dose of 5, 50 and occasionally 100 mg/kg respectively. On the 6th day of the test blood is taken retroorbitally from the mice and the anti-sheep erythrocyte titer of the serum is determined. […] The effect of the peptides is expressed as percentage of the relief of inhibition (G %).

[7] = tested on: inflammation induced by oxozolone; experiment: Dermatitis test induced with oxazolone; assay type: in vivo, CFLP mice; details: 24th hour after treatment, ear weight increase
Protocol: In this test a modified pharmacological model of D. P. Evans et al. [Br. J. Pharmac. 43, 403-488 (1971)] is used.
The abdominal skin of male CFLP mice weighing 20-22 g is painted after the removal of the hair with 0.1 ml of a 2% solution of oxazolon (4-ethoxymethyl-2-phenyl-oxazoline, manufacturer Sigma) in sunflower oil. On the right ear of the test animals 7 days after sensitization (painting) inflammatory reaction is induced with the aid of 10 μl of a 2% acetonous oxazolone solution and simultaneously the animals are treated with a 1 or 2 mg/kg, respectively, i.p. does of the test compound. The test compound is dissolved in a physiological sodium chloride solution in such a concentration that the active ingredient content corresponding to the dose should be dissolved in a volume of 0.5 ml/10 g animal body weight.
The antiinflammatory effect is determined as follows: the animals are sacrificed in the 24th hour after treatment, whereupon the right and left ears are cut off. The percentual weight increase of the right ear related to the left ear is characteristic of the rate of inflammation induced during the test, while the percentual reduction of weight increase of the treated animals related to the untreated control is proportional to the antiinflammatory effect. In Table 4 the reduction of weight increase (antiinflammatory effect) achieved by the test compounds is disclosed, as the percentage of the untreated control.

Lewis Lung Tumor (LLT) = experiment: Tumor metastasis inhibiting effect; assay type: in vivo, C57 B1 mice; details: single 10 mg/kg i.p., 18th day
Protocol: 20 g male C57 B1 mice divided into groups consisting of 5 animals each, are injected with a Lewis Lung Tumor (LLT) cell-suspension. The said cell-suspension is administered into the tail vein, in a dose of 10^5 cells/mouse. Twenty-four hours after the administration of the tumor-cells the animals are treated with a single 10 mg/kg i.p. dose of the test compound. On the 18th day following infection with the tumor the animals are sacrificed and the cancer noduli appearing in the lungs are counted under a stereomicroscope. Animals not treated with peptide serve as control. In Table 8 the results obtained with Glp-Lys-NH2 dipeptide amide are disclosed.

## Glp-Lys-NH2 -mandelate
[1]; 0.1 mg/kg s.c. once a day for 2 days
  Phagocyte activity x ± S.E.M. (number of yeast cells incorporated into the 100 PEC cells): 182.3 ± 3.5
[1]; 1.0 mg/kg s.c. once a day for 2 days
  Phagocyte activity x ± S.E.M. (number of yeast cells incorporated into the 100 PEC cells): 209.3 ± 8.6
[1]; 10 mg/kg s.c. once a day for 2 days
  Phagocyte activity x ± S.E.M. (number of yeast cells incorporated into the 100 PEC cells): 244.8 ± 4.3
PEC cells [2]; CY 80 mg/kg p.o. + peptide 0.1 mg/kg s.c. simultaneously
  Phagocyte activity x ± S.E.M. (number of yeast cells incorporated by the 100 PEC cells): 241.7 ± 20.3
PEC cells [2]; CY 80 mg/kg p.o. + peptide 1.0 mg/kg s.c. simultaneously
  Phagocyte activity x ± S.E.M. (number of yeast cells incorporated by the 100 PEC cells): 215.2 ± 21.5
PEC cells [2]; CY 80 mg/kg p.o. + peptide 10 mg/kg s.c. simultaneously
  Phagocyte activity x ± S.E.M. (number of yeast cells incorporated by the 100 PEC cells): 164.4 ± 13.8
PEC cells [3]; peptide 0.1 mg/kg s.c. 6 hours after CY
  Phagocyte activity x ± S.E.M. (number of yeast cells incorporated by the 100 PEC cells): 226.5 ± 8.8
PEC cells [3]; peptide 1.0 mg/kg s.c. 6 hours after CY
  Phagocyte activity x ± S.E.M. (number of yeast cells incorporated by the 100 PEC cells): 252.2 ± 7.4
PEC cells [3]; peptide 10 mg/kg s.c. 6 hours after CY
  Phagocyte activity x ± S.E.M. (number of yeast cells incorporated by the 100 PEC cells): 257.3 ± 9.3

## Glp-Lys-NH2 [Peptide 1]
[4]; peptide 1/ug/ml
  Inhibition of the proliferation of K-562 cells, inhibition (c %): 20%
[4]; peptide 10/ug/ml
  Inhibition of the proliferation of K-562 cells, inhibition (c %): 42%
[5]; peptide 10^-3 mole/l
  Relief of inhibition (R %) of E-rosetta forming activity: 33.0%
[5]; peptide 10^-5 mole/l
  Relief of inhibition (R %) of E-rosetta forming activity: 9.9%
[5]; peptide 10^-7 mole/l
  Relief of inhibition (R %) of E-rosetta forming activity: 36.6%
[5]; peptide 10^-9 mole/l
  Relief of inhibition (R %) of E-rosetta forming activity: 25.0%
[5]; peptide 10^-11 mole/l
  Relief of inhibition (R %) of E-rosetta forming activity: 10.0%
[6]; peptide 5 mg/kg i.p. on 3rd day
  Restoration of primary immune answer, G %: 123.8%
[6]; peptide 50 mg/kg i.p. on 3rd day
  Restoration of primary immune answer, G %: 133.3%
[7]; 1 mg/kg i.p.
  Inhibition of inflammation induced by oxozolone, inhibition as % of control: 62%
[7]; 2 mg/kg i.p.
  Inhibition of inflammation induced by oxozolone, inhibition as % of control: 61%
Lewis Lung Tumor (LLT); treated animal No. 1, untreated control 15
  No. of metastases in the lungs: 0
Lewis Lung Tumor (LLT); treated animal No. 2, untreated control 20
  No. of metastases in the lungs: 2
Lewis Lung Tumor (LLT); treated animal No. 3, untreated control 16
  No. of metastases in the lungs: 1
Lewis Lung Tumor (LLT); treated animal No. 4, untreated control 12
  No. of metastases in the lungs: 2
Lewis Lung Tumor (LLT); treated animal No. 5, untreated control 11
  No. of metastases in the lungs: 5
